# Legend:
# FES^S700C [1] = target: T1, FES^S700C (Homo sapiens, UniProt P07332, S700C); test: PamChip microarray peptide phosphorylation; format: biochemical; design: human FES cDNA encoding residues 448–822 or human FER cDNA encoding residues 448–820 was amplified by PCR; made in house; host or cells: E. coli BL21(DE3), co-expressing YopH phosphatase; conditions: peptide substrate phosphorylated by FES - S700C
# FES^S700C [2] = target: T1, FES^S700C; test: In vitro TR-FRET kinase assay; format: biochemical; design: human FES cDNA encoding residues 448–822 or human FER cDNA encoding residues 448–820 was amplified by PCR; made in house; host or cells: E. coli BL21(DE3), co-expressing YopH phosphatase; conditions: for Apparent fold selectivity: IC50 on FES^WT divided by IC50 on FES^S700C; for IC50: read-out: pIC50 FES^S700C (converted); for Residual activity (%): FES S700C, mean, n=3
# T1 sequence (P07332 448-822 S700C): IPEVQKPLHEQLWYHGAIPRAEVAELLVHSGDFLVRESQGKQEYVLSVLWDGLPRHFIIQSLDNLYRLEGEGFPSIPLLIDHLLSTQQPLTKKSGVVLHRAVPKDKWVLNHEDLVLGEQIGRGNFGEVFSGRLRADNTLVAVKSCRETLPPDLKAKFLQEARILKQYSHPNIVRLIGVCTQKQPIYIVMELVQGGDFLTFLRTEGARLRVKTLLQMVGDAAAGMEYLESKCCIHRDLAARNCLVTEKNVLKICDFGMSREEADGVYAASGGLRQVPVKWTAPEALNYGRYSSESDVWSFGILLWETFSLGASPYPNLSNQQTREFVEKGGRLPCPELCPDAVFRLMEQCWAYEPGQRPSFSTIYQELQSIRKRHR
molecule,measurement,setting,value
"VGFR3_1061_1073 (DIYKDPDYVRKGS; UniProt P35916 1061-1073, looked up, fragment)",Relative phosphorylation (% of highest signal),FES^S700C [1],0.1 % of highest signal
"STAT4_686_698 (TERGDKGYVPSVF; UniProt Q14765 686-698, looked up, fragment)",Relative phosphorylation (% of highest signal),FES^S700C [1],-0.317 % of highest signal
"VGFR2_1168_1180 (AQQDGKDYIVLPI; UniProt P35968 1168-1180, looked up, fragment)",Relative phosphorylation (% of highest signal),FES^S700C [1],9.5 % of highest signal
ART_004_EAIYAAPFAKKKXC,Relative phosphorylation (% of highest signal),FES^S700C [1],8.3 % of highest signal
"STAT1_694_706 (DGPKGTGYIKTEL; UniProt P42224 694-706, looked up, fragment)",Relative phosphorylation (% of highest signal),FES^S700C [1],-0.9 % of highest signal
"VGFR2_1207_1219_C1208S (VSDPKFHYDNTAG; UniProt P35968 1207-1219, looked up, variant C1208S)",Relative phosphorylation (% of highest signal),FES^S700C [1],1.3 % of highest signal
"VGFR1_1046_1058_Y1048F (DIFKNPDYVRKGD; UniProt P17948 1046-1058, looked up, variant Y1048F)",Relative phosphorylation (% of highest signal),FES^S700C [1],-0.9 % of highest signal
COc1ccccc1Nc1ncc(Cl)c(Nc2ccccc2S(=O)(=O)C(C)C)n1 [Compound 2],Apparent fold selectivity,FES^S700C [2],2.5 fold
same,IC50,"FES^S700C [2]; TR-FRET assay, 5 µM ATP, n = 3",15.8 nM
"MBP_259_271 (FGYGGRASDYKSA; UniProt P02686 259-271, looked up, fragment)",Relative phosphorylation (% of highest signal),FES^S700C [1],-0.258 % of highest signal
"MBP_263_275 (GRASDYKSAHKGF; UniProt P02686 263-275, looked up, fragment)",Relative phosphorylation (% of highest signal),FES^S700C [1],-0.5 % of highest signal
"EPHA2_581_593 (QLKPLKTYVDPHT; UniProt P29317 581-593, looked up, fragment)",Relative phosphorylation (% of highest signal),FES^S700C [1],0.144 % of highest signal
"VGFR1_1162_1174 (VQQDGKDYIPINA; UniProt P17948 1162-1174, looked up, fragment)",Relative phosphorylation (% of highest signal),FES^S700C [1],4.4 % of highest signal
"NTRK2_509_521 (PVIENPQYFGITN; UniProt Q16620 509-521, looked up, fragment)",Relative phosphorylation (% of highest signal),FES^S700C [1],-1.0 % of highest signal
"MK01_198_210 (IMLNSKGYTKSID; UniProt P28482 198-210, looked up, fragment)",Relative phosphorylation (% of highest signal),FES^S700C [1],-1.1 % of highest signal
"ODBA_340_352_D340K (KDSSAYRSVDEVN; UniProt P12694 340-352, looked up, variant D340K)",Relative phosphorylation (% of highest signal),FES^S700C [1],-0.7 % of highest signal
Nc1ncnc2c1ncn2[C@@H]1O[C@H](COP(=O)(O)OP(=O)(O)OP(=O)(O)O)[C@@H](O)[C@H]1O [ATP],Km,"FES^S700C [2]; FES^S700C, TR-FRET, 60 min, read-out: ATP KM",0.79 µM
"STAT6_634_646 (MGKDGRGYVPATI; UniProt P42226 634-646, looked up, fragment)",Relative phosphorylation (% of highest signal),FES^S700C [1],-0.6 % of highest signal
"EFS_246_258_Y253F (GGTDEGIFDVPLL; UniProt O43281 246-258, looked up, fragment Y253F)",Relative phosphorylation (% of highest signal),FES^S700C [1],-1.4 % of highest signal
CCC(=O)Nc1ccccc1Nc1nc(Nc2ccccc2OC)ncc1Cl [Supplementary Figure 1f],Residual activity (%),FES^S700C [2]; log[inhibitor] (M) = -5,51.0323%
same,Residual activity (%),FES^S700C [2]; log[inhibitor] (M) = -5.52288,52.0081%
same,Residual activity (%),FES^S700C [2]; log[inhibitor] (M) = -6,80.9285%
same,Residual activity (%),FES^S700C [2]; log[inhibitor] (M) = -6.52288,101.29%
same,Residual activity (%),FES^S700C [2]; log[inhibitor] (M) = -7,99.7119%
same,Residual activity (%),FES^S700C [2]; log[inhibitor] (M) = -7.52288,103.019%
same,Residual activity (%),FES^S700C [2]; log[inhibitor] (M) = -8,101.749%
"VGFR1_1320_1332_C1320K/C1321K (KKSPPPDYNSVVL; UniProt P17948 1320-1332, looked up, variant C1320K C1321K)",Relative phosphorylation (% of highest signal),FES^S700C [1],4.5 % of highest signal
"VGFR2_944_956 (RFRQGKDYVGAIP; UniProt P35968 944-956, looked up, fragment)",Relative phosphorylation (% of highest signal),FES^S700C [1],1.4 % of highest signal
"DDR1_506_518 (LLLSNPAYRLLLA; UniProt Q08345 506-518, looked up, fragment)",Relative phosphorylation (% of highest signal),FES^S700C [1],-0.9 % of highest signal
"VINC_815_827 (KSFLDSGYRILGA; UniProt P18206 815-827, looked up, fragment)",Relative phosphorylation (% of highest signal),FES^S700C [1],0.6 % of highest signal
"VGFR1_1235_1247 (ATSMFDDYQGDSS; UniProt P17948 1235-1247, looked up, fragment)",Relative phosphorylation (% of highest signal),FES^S700C [1],-0.074 % of highest signal
"EPHA4_921_933 (QAIKMDRYKDNFT; UniProt P54764 921-933, looked up, fragment)",Relative phosphorylation (% of highest signal),FES^S700C [1],-0.7 % of highest signal
"AMPE_5_17 (EREGSKRYCIQTK; UniProt Q07075 5-17, looked up, fragment)",Relative phosphorylation (% of highest signal),FES^S700C [1],-0.5 % of highest signal
"ZBT16_621_633 (LRTHNGASPYQCT; UniProt Q05516 621-633, looked up, fragment)",Relative phosphorylation (% of highest signal),FES^S700C [1],1.1 % of highest signal
"VGFR1_1206_1218 (GSSDDVRYVNAFK; UniProt P17948 1206-1218, looked up, fragment)",Relative phosphorylation (% of highest signal),FES^S700C [1],0.24 % of highest signal
"VGFR2_1046_1058 (DFGLARDIYKDPD; UniProt P35968 1046-1058, looked up, fragment)",Relative phosphorylation (% of highest signal),FES^S700C [1],2.1 % of highest signal
C=CC(=O)Nc1cccc(Nc2nc(Nc3ccccc3OC)ncc2Cl)c1 [Supplementary Figure 1d],Residual activity (%),FES^S700C [2]; log[inhibitor] (M) = -5,-0.2497%
same,Residual activity (%),FES^S700C [2]; log[inhibitor] (M) = -5.52288,-0.5097%
same,Residual activity (%),FES^S700C [2]; log[inhibitor] (M) = -6,-0.8205%
same,Residual activity (%),FES^S700C [2]; log[inhibitor] (M) = -6.52288,-0.4059%
same,Residual activity (%),FES^S700C [2]; log[inhibitor] (M) = -7,-0.7051%
same,Residual activity (%),FES^S700C [2]; log[inhibitor] (M) = -7.52288,-0.1368%
same,Residual activity (%),FES^S700C [2]; log[inhibitor] (M) = -8,11.6016%
same,Residual activity (%),FES^S700C [2]; log[inhibitor] (M) = -8.52288,70.8547%
same,Residual activity (%),FES^S700C [2]; log[inhibitor] (M) = -9,85.0509%
same,Residual activity (%),FES^S700C [2]; log[inhibitor] (M) = -9.52288,98.0879%
same,Residual activity (%),FES^S700C [2]; log[inhibitor] (M) = -10,85.4934%
same,Residual activity (%),FES^S700C [2]; log[inhibitor] (M) = -10.5229,94.4068%
same,Residual activity (%),FES^S700C [2]; log[inhibitor] (M) = -11,106.971%
C=CC(=O)Nc1ccccc1Nc1nc(Nc2ccccc2OC)ncc1Cl [Compound 4],Apparent fold selectivity,FES^S700C [2],238 fold
same,IC50,"FES^S700C [2]; TR-FRET assay, 5 µM ATP, n = 3",3.98 nM
C=CC(=O)Nc1ccccc1Nc1nc(Nc2ccccc2OC)ncc1Cl [Supplementary Figure 1e],Residual activity (%),FES^S700C [2]; log[inhibitor] (M) = -5,5.657%
same,Residual activity (%),FES^S700C [2]; log[inhibitor] (M) = -5.52288,10.8053%
same,Residual activity (%),FES^S700C [2]; log[inhibitor] (M) = -6,28.2387%
same,Residual activity (%),FES^S700C [2]; log[inhibitor] (M) = -6.52288,69.3014%
same,Residual activity (%),FES^S700C [2]; log[inhibitor] (M) = -7,75.3706%
same,Residual activity (%),FES^S700C [2]; log[inhibitor] (M) = -7.52288,96.1185%
same,Residual activity (%),FES^S700C [2]; log[inhibitor] (M) = -8,98.0581%
same,Residual activity (%),FES^S700C [2]; log[inhibitor] (M) = -8.52288,106.349%
same,Residual activity (%),FES^S700C [2]; log[inhibitor] (M) = -9,109.01%
same,Residual activity (%),FES^S700C [2]; log[inhibitor] (M) = -9.52288,116.606%
same,Residual activity (%),FES^S700C [2]; log[inhibitor] (M) = -10,111.768%
same,Residual activity (%),FES^S700C [2]; log[inhibitor] (M) = -10.5229,102.117%
same,Residual activity (%),FES^S700C [2]; log[inhibitor] (M) = -11,99.3612%
COc1ccccc1Nc1ncc(Cl)c(Nc2ccccc2S(=O)(=O)C(C)C)n1 [Supplementary Figure 1c],Residual activity (%),FES^S700C [2]; log[inhibitor] (M) = -5,0.2233%
same,Residual activity (%),FES^S700C [2]; log[inhibitor] (M) = -5.52288,0.2556%
same,Residual activity (%),FES^S700C [2]; log[inhibitor] (M) = -6,-0.06933%
same,Residual activity (%),FES^S700C [2]; log[inhibitor] (M) = -6.52288,4.851%
same,Residual activity (%),FES^S700C [2]; log[inhibitor] (M) = -7,14.3041%
same,Residual activity (%),FES^S700C [2]; log[inhibitor] (M) = -7.52288,33.9502%
same,Residual activity (%),FES^S700C [2]; log[inhibitor] (M) = -8,66.7428%
same,Residual activity (%),FES^S700C [2]; log[inhibitor] (M) = -8.52288,88.3714%
same,Residual activity (%),FES^S700C [2]; log[inhibitor] (M) = -9,94.1217%
same,Residual activity (%),FES^S700C [2]; log[inhibitor] (M) = -9.52288,96.7458%
same,Residual activity (%),FES^S700C [2]; log[inhibitor] (M) = -10,89.1056%
same,Residual activity (%),FES^S700C [2]; log[inhibitor] (M) = -10.5229,99.8276%
same,Residual activity (%),FES^S700C [2]; log[inhibitor] (M) = -11,106.567%
CCC(=O)Nc1ccccc1Nc1nc(Nc2ccccc2OC)ncc1Cl [Compound 5],pIC50 FES^S700C,"FES^S700C [2]; TR-FRET assay, 5 µM ATP, n = 3",low inhibitory potency
same,IC50,"FES^S700C [2]; TR-FRET assay, 5 µM ATP, n = 3",6310 nM

# From paper PMC7316778 (Nature Communications, 2020)
